According to patent US20240238425A1, “HSD17B13 Inhibitors and/or Degraders” (Pfizer Inc., priority 2022, published 2024):
Where a name gives a salt, the structure may show the parent alone.

Tested on: HiBiT-HSD17β13 fusion protein (N-terminal HiBiT-tagged HSD17β13 isoform D) in Huh7 HiBiT-HSD17β13 OE cells
Experiment: Whole-cell Huh7-HSD17B13 HiBiT assay (degrader potency and maximal efficacy, luminescence readout)
Format: cell-based, human
Details: 24 hour incubation, geometric mean, * = geometric mean for all forms tested (parent and salt forms); for DC50: read-out: Huh7_HIBIT-HSD17β13_DC50 GMean DC50; for Huh7_HIBIT-HSD17β13_DC50 GMean Asymptote Maximum: max. concentration 1 μM
Method: Degrader potency and maximal efficacy of test compounds were determined using a whole-cell Huh7-HSD17B13 HiBiT assay, utilizing a luminescence readout. A HiBiT tag was fused to the N-terminus of HSD17β13, and therefore the HiBiT luminescence signal produced in the assay was proportional to the level of HiBiT-HSD17β13 fusion protein in a sample.
A Huh7 HiBiT-HSD17β13 OE cell line was generated using electroporation with an N-terminal HiBiT-tagged HSD17β13 isoform D overexpression plasmid, followed by geneticin selection to produce a stable pool. Clones were created with varying HiBiT signals to optimize HiBiT HSD17 β13 ratios. A clone with similar HSD17β13 expression levels as human primary hepatocytes was selected for the compound screen.
Greiner 384-well white opaque, flat bottom, tissue culture treated plates (Greiner #781080) were used for both HiBiT and CTG assays. The treated plates were spotted with 25 nL of a compound which had been serial diluted 1 in 3.162 in 100% DMSO for an 11-point concentration response curve, with duplicate points at each concentration. The maximum concentration of the compounds was 1 mM, which was later diluted with cell suspension for a maximum concentration of 1 μM). High percentage effect (HPE) wells and zero percentage effect (ZPE) wells located in columns 1 and 24 were spotted with 25 nL of DMSO (Sigma #D2650) using an ECHO Acoustic Liquid Handler (Labcyte Echo 550 Series). Each plate was performed in duplicate.
The Huh7 HiBiT-HSD17β13 OE cells were plated on top of a compound or a DMSO control at 3,000 viable cells/well in 25 μL growth media (DMEM (Gibco #10569), 10% FBS HI (Gibco #16140), 1× Pen/Strep (Gibco #15070), 1×MEM Non-Essential Amino Acids (Gibco #11140), and 300 μg/mL Geneticin (Gibco #10131) in columns 2-24 of the plates. Huh7 parental cells were plated using the same parameters in column 1 (HPE) in the same culture medium, excluding Geneticin selection. Cells were incubated overnight with the compounds for 24 hours (with lid) at 37° C. ([…]).
Each assay was conducted after a 24 hour incubation period. In the HiBiT assay plates, 25 μL of complete Nano-Glo HiBiT Lytic detection system (Promega #PRN3040), consisting of HiBiT Lytic Buffer with the addition of 1:100 LgBiT Protein and 1:50 Substrate, was added to each well. In CTG counter screen plates, 25 μL of Cell Titer-Glo Luminescent Reagent (Promega #G7573) was added to each well. Both plates were centrifuged for 2 minutes at 1000 rpm and incubated at room temperature, in the dark, for 10 minutes. Then Luminescence was read using an EnVision Plate Reader (Perkin Elmer PE2103).
The raw data from the Envision Plate Reader was expressed as relative luminescence units (RLUs) for each well of the assay plates. Using HPE and ZPE controls, the % effect was calculated for each sample well as follows: Percent effect=[(sample RLU−HPE RLU)\(ZPE RLU−HPE RLU)]*100. The percent effect was plotted versus the compound concentration and a 50% degradation ([…]) was determined using a four-parameter logistic dose response equation. The raw data was analyzed using ABase (IDBS).

SMILES	DC50 [nM]	Huh7_HIBIT-HSD17β13_DC50 GMean Asymptote Maximum [%]
Cc1ccc(C(=O)N2CCC(OC3CCN(c4ncc(-c5ccc6cn([C@H]7CC[C@H](CNC(=O)c8cc(F)c(O)c(F)c8F)CC7)nc6c5)cn4)CC3)CC2)cc1N1CCC(=O)NC1=O [Example 57, N-{[(1r,4r)-4-(6-{2-[4-({1-[3-(2,4-dioxo-1,3-diazinan-1-yl)-4-methylbenzoyl]piperidin-4-yl}oxy)piperidin-1-yl]pyrimidin-5-yl}-2H-indazol-2-yl)cyclohexyl]methyl}-2,3,5-trifluoro-4-hydroxybenzamide, trifluoroacetate salt]	4.8	76
Cn1c(=O)n(C2CCC(=O)NC2=O)c2cccc(CCN3CCN(c4ccc5cn([C@H]6CC[C@H](CNC(=O)c7cc(F)c(O)c(F)c7F)CC6)nc5c4)CC3)c21 (mixture of isomers) [Example 56, N-{[(1r,4r)-4-{6-[4-(2-{1-[(3RS)-2,6-dioxopiperidin-3-yl]-3-methyl-2-oxo-2,3-dihydro-1H-benzimidazol-4-yl}ethyl)piperazin-1-yl]-2H-indazol-2-yl}cyclohexyl]methyl}-2,3,5-trifluoro-4-hydroxybenzamide, trifluoroacetate salt]	0.64	82
O=C1CCN(c2cnc3cc(CN4CCN(c5ncc(-c6ccc7cn([C@H]8CC[C@H](CNC(=O)c9cc(F)c(O)c(F)c9F)CC8)nc7c6)cn5)CC4)ccn23)C(=O)N1 [Example 50, N-{[(1r,4r)-4-{6-[2-(4-{[3-(2,4-dioxo-1,3-diazinan-1-yl)imidazo[1,2-a]pyridin-7-yl]methyl}piperazin-1-yl)pyrimidin-5-yl]-2H-indazol-2-yl}cyclohexyl]methyl}-2,3,5-trifluoro-4-hydroxybenzamide, trifluoroacetate salt]	0.91	85
Cc1ccc(C(=O)N2CCC3(CCC(c4nc(-c5ccc6cn([C@H]7CC[C@H](CNC(=O)c8cc(F)c(O)c(F)c8F)CC7)nc6c5)no4)CC3)CC2)cc1N1CCC(=O)NC1=O [Example 96, N-({(1r,4r)-4-[6-(5-{3-[3-(2,4-dioxo-1,3-diazinan-1-yl)-4-methylbenzoyl]-3-azaspiro[5.5]undecan-9-yl}-1,2,4-oxadiazol-3-yl)-2H-indazol-2-yl]cyclohexyl}methyl)-2,3,5-trifluoro-4-hydroxybenzamide]	2.7	81

Now from value to compound, other results behind:

DC50 [nM]	SMILES	Huh7_HIBIT-HSD17β13_DC50 GMean Asymptote Maximum [%]
0.5	Cn1c(=O)n(C2CCC(=O)NC2=O)c2ccc(CCCN3CCc4nc(-c5ccc6cn([C@H]7CC[C@H](CNC(=O)c8cc(F)c(O)c(F)c8F)CC7)nc6c5)ncc4C3)cc21 (mixture of isomers) [Example 87, N-{[(1r,4r)-4-{6-[6-(3-{1-[(3RS)-2,6-dioxopiperidin-3-yl]-3-methyl-2-oxo-2,3-dihydro-1H-benzimidazol-5-yl}propyl)-5,6,7,8-tetrahydropyrido[4,3-d]pyrimidin-2-yl]-2H-indazol-2-yl}cyclohexyl]methyl}-2,3,5-trifluoro-4-hydroxybenzamide]	78
0.23	Cn1c(=O)n(C2CCC(=O)NC2=O)c2ccc(CCCN3CCN(c4nc(-c5nc([C@]67CC[C@](CNC(=O)c8cc(F)c(O)c(F)c8F)(CC6)CC7)no5)cc(N5CCOCC5)n4)CC3)cc21 (mixture of isomers) [Example 123, N-{[4-(5-{2-[4-(3-{1-[(3RS)-2,6-dioxopiperidin-3-yl]-3-methyl-2-oxo-2,3-dihydro-1H-benzimidazol-5-yl}propyl)piperazin-1-yl]-6-(morpholin-4-yl)pyrimidin-4-yl}-1,2,4-oxadiazol-3-yl)bicyclo[2.2.2]octan-1-yl]methyl}-2,3,5-trifluoro-4-hydroxybenzamide]	79
